Results published in USRE35904E, “Method and probes for detecting nucleoside transporter and method for producing the probes” (Governors of the University of Alberta, priority 1995, dated 1998).

Assays:
[1] = molecular target: T1, es nucleoside transporter (Mus musculus, UniProt Q9JIM1); test: Flow cytometric staining of L1210/B23.1 cells (es nucleoside transporter-expressing) by SAENTA-fluorescein probe; type: cell-based; settings: 40 nM 5-(SAENTA-X2)-fluorescein, 10 min, 4° C., pH 8.0, FIG. 8
T1 construct: endogenous in cells; host or cells: L1210/B23.1 mouse leukemia cells
T1 sequence (Q9JIM1 1-460): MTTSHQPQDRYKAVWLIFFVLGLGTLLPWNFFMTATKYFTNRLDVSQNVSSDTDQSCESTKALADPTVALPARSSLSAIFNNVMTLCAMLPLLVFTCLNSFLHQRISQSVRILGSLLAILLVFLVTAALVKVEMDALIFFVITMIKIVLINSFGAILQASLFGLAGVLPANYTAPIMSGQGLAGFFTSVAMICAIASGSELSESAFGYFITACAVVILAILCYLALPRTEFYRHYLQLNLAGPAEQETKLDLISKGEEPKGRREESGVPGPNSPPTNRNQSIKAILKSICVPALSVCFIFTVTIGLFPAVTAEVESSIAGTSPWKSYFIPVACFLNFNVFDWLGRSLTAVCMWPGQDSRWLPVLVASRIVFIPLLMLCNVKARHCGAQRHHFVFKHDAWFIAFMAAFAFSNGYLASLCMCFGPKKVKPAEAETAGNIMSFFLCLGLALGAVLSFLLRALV
Method: Flow cytometric measurements of binding of .[.SAENTA-x2 -fluorescein.]. .Iadd.SAENTA-X2-fluorescein .Iaddend.prepared as in Example 3 was carried out as in Example 4 using two clonal lines of cultured mouse leukemia L 1210 cells, L 1210/B23.1 and L 1210/MA-27.1. L 1210/B23.1 expresses NBMPR binding sites and nuclesoside transporter activity whereas L 1210/MA-27.1 cells lack both of these features.
Staining conditions were chosen to minimise non-specific fluorescence signals from L 1210/MA-27.1 cells treated with the nucleoside.
Cells were exposed for 10 min at 4° C. to phosphate-buffered (pH 8.0) salts medium containing 40 nM .[.5(SAENTA-xx2)fluorescein.]. .Iadd.5-(SAENTA-X2)-fluorescein .Iaddend.prior to flow cytometric analysis in a BD FACSan instrument; 10^5 cells were analysed. Cells in replicate assay mixtures were also exposed for 5 min at 22° C. to medium containing 10 μM NBMPR and then for 10 min at 4° C. to medium containing both NBMPR and .[.5-SAENTA-x2)-fluorescein.]. .Iadd.5-(SAENTA-X2)-fluorescein.Iaddend..
(a) Clonal lines of mouse leukemia cells were exposed for 10 min at 4° C. to phosphate buffered (pH 8.0) saline containing […] .[.5-(SAENTA-x2)-fluorescein.]. .Iadd.5-(SAENTA-X2)-fluorescein .Iaddend.(prepared as in Example 3) prior to flow cytometric analysis in a BD FACScan instrument; 10^4 cells were analysed. Cells in replicate mixtures were also exposed for 5 min at 22° C. to medium containing 10 μM NBMPR and then for 10 min at 4° C. to medium containing both NBMPR and .[.5-(SAENTA-x2)-fluorescein.]. .Iadd.5-(SAENTA-X2)-fluorescein.Iaddend.. L 1210/B23.1 cells express the es nucleoside transport system whereas L 1210/MA-27.1 cells lack that activity.

nucleoside transporter [2] = molecular target: T2, nucleoside transporter (Homo sapiens, UniProt Q99808); test: Inhibition of [3H]cytosine arabinoside (araC) influx in RC2a leukaemic cells; type: cell-based
T2 construct: The human leukaemic cell line RC2a, of myelomonocytic origin; endogenous in cells; host or cells: RC2a human leukaemic (myelomonocytic) cells
T2 sequence (Q99808 1-456): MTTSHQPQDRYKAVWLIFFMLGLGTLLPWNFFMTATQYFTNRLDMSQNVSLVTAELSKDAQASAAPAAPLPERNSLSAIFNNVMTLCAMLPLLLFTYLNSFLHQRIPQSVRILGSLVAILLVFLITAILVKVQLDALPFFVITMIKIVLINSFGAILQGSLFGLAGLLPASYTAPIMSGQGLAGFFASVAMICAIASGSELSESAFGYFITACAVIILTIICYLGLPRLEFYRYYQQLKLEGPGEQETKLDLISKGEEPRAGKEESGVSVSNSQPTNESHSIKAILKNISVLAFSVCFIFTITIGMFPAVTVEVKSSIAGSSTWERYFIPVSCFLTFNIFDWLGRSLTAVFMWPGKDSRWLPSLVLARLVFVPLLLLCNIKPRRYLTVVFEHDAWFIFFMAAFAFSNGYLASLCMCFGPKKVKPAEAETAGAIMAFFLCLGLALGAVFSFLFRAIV
Method: . Unlabelled NBMPR was supplied by Sigma (St. Louis, MO, U.S.A.). [^3 H]Cytosine arabinoside (araC) and [^14 C]polyethylene glycol were obtained from Amersham, Buckinghamshire, England. Dilazep was a gift from Roche, Dee Why, Australia. Incubations were carried out using imidazole-buffered saline (IBS; […], 5 mM KCl, 5 mM imidazole-Cl, 1 mM MgCl2 and 5 mM glucose, pH 7.4).
The human leukaemic cell line RC2a, of myelomonocytic origin (Bradley et al., 1982 Brit. J. Haematol., vol. 51, pp. 595-604) was maintained in RPMI 1640 medium containing 10% foetal calf serum, 2 mM glutamine, 20 mM HEPES (pH 7.4) (Flow Laboratories, Sydney, Australia) and 20 mg/l gentamycin sulphate (Roussell, Castle Hill, Australia). Cell densities were maintained below 5×10^5 /ml. Cells were collected by centrifugation and resuspended in buffered saline for assays.
Prior to measurement of [^3 H]araC uptake, RC2a leukaemic cells were treated at 20° C. for 10 min with graded concentrations (0-0.05 μM) of .[.SAENTA-x2 -fluorescein.]. .Iadd.SAENTA-X2-fluorescein .Iaddend.prepared as in Example 3. Treated cells (100 μl, 5×10^7 cells/ml) were added to [^3 H]araC (100 μl) in IBS medium in 1.5 ml centrifuge tubes to give a final araC concentration of 50 μM. [^3 H]araC uptake was ended 20 sec. later by the addition of 800 μl of ice-cold dilazep (750 μM) (Jamieson et al., 1989). Phthalate oil was added immediately and the tube spun at 8000 g for 2 min. Medium above the oil was aspirated, the tube walls washed, and the oil above the cell pellet removed. Pellets were solubilized using 0.5M NaOH and the [^3 H]araC contents were measured by liquid scintillation counting. […]
The ability of .[.SAENTA-x2 -fluorescein.]. .Iadd.SAENTA-X2-fluorescein .Iaddend.to inhibit influx of nucleoside was assessed in cultured RC2a leukaemic cells by treating the cells for 10 min with graded concentrations of .[.SAENTA-x2 -fluorescein.]. .Iadd.SAENTA-X2-fluorescein .Iaddend.(0 to 0.25 μM). Uptake rates of araC (50 μM) were then determined over 20 s at 20° C. as described above.

nucleoside transporter [3] = molecular target: T2, nucleoside transporter; test: Inhibition of [3H]NBMPR binding to RC2a leukaemic cells; settings: 30 min, 37° C., FIG. 5; read-out: half-maximal inhibition of site-specific [3H]NBMPR binding
Method: [^3 H]NBMPR from Moravek Biochemicals Brea, CA, U.S.A. was purified by reverse phase HPLC using methanol-water as solvent. Unlabelled NBMPR was supplied by Sigma (St. Louis, MO, U.S.A.). [^3 H]Cytosine arabinoside (araC) and [^14 C]polyethylene glycol were obtained from Amersham, Buckinghamshire, England. Dilazep was a gift from Roche, Dee Why, Australia.
The free [^3 H]NBMPR concentration in the medium above the oil was also measured. Non-specific binding of [^3 H]NBMPR was measured in parallel incubations of cells treated for 5 min at 37° C. with 5 μM NBMPR before the addition of [^3 H]NBMPR. Specific binding was calculated by subtracting the amount of non-specific binding (determined in the presence of 5 μM unlabelled NBMPR) from total [^3 ]NBMPR binding in all analyses.

nucleoside transporter [4] = molecular target: T2, nucleoside transporter; test: Equilibrium binding of SAENTA-fluorescein probe to RC2a cells by flow cytometry, with displacement by NBMPR or dilazep
[5] = molecular target: T1, es nucleoside transporter; test: [3H]NBMPR equilibrium binding to L1210/B23.1 cells and its inhibition by SAENTA-fluorescein probes; settings: 22°; for Ki: replots of Kd(app)/Bmax versus [probe], read-out: Ki (mean ± S.D.)
[6] = molecular target: T3, es nucleoside transporter (Sus scrofa, UniProt A0A287B2T6); test: Inhibition of site-specific [3H]NBMPR binding to unsealed pig erythrocyte ghosts; settings: for IC50: 2 nM [3H]NBMPR, 20 min, 22° C., pH 7.4, read-out: IC50 for inhibition of site-bound [3H]NBMPR; for inhibition of NBMPR binding to the nucleoside transporter: result in words
T3 construct: immediately processed by conventional methods for recovery of erythrocytes; tissue Gainers, Edmonton, Alberta, Canada (blood of domestic pigs); host or cells: pig erythrocytes, unsealed ghosts
Method: Blood from adult domestic pigs (Gainers, Edmonton, Alberta, Canada) was collected into 0.2 vol. of anticoagulant solution (90 mM-sodium citrate/16 mM-citric acid/16 mM-monosodium phosphate/2 mM-adenine/12 mM-inosine) and immediately processed by conventional methods for recovery of erythrocytes.
Unsealed ghosts were prepared at 4° C. by the procedure of Steck & Kant, (1974), Methods in Enzymology, vol. 31, pp. 172-180, modified by the inclusion of 0.1 mM phenylmethane sulphonyl fluoride, and stored at -70° C.
NBMPR was prepared as described by Paul, Chen & Paterson (1975), J. Med Chem., vol. 18, pp. 968-973. [G-^3 H]NBMPR (23 Ci/mmol), obtained from Moravek Biochemicals, Brea, CA., U.S.A., was purified by using a Spheri-10 RP18 100 mm×4.6 mm column (Brownlee Labs, Santa Clara, CA,. U.S.A.), eluted with a methanol/water gradient.
Binding to unsealed ghosts was determined by a filtration assay, as described by Agbanyo, Cass & Paterson (1988) Mol. Pharmacol., vol. 33, pp. 332-337. Assay mixtures (final volume, 1.2 ml; two samples per condition) contained 2 nM-[^3 H]NBMPR, graded concentrations of test compound and unsealed ghosts (10 μg of protein/ml) in 5 mM-sodium phosphate buffer, pH 7.4, at 22° C., and, for determination of non-specific binding, 5 μM non-radioactive NBMPR was present. After a 20 min incubation at 22° C., membrane material from 1 ml portions of assay mixtures was collected by vacuum filtration on Whatman GF/C microfibre filters, which were then rapidly washed three times with 2 ml portions of ice-cold 5 mM-sodium phosphate buffer. The filters were placed in scintillation vials and assayed for radioactivity after a 16 h incubation in 8 ml of Triton X-100-based scintillation fluid as described by Pande (1976) Anal. Biochem., vol. 74, pp. 25-34. Protein was determined by the bicinchoninic acid method of Smith et al. (1985) Anal. Biochem., vol. 150, pp. 76-85.
Correction for non-specific binding was determined by performing the assay in the presence of 5 μM-non radioactive NBMPR. Replicate mixtures contained ghosts, 2 nM-[^3 H]NBMPR, graded concentrations of SAENTA or acetyl SAENTA (prepared as in Example 1) and, in mixtures used for non-specific binding, 5 μM-non radioactive NBMPR. Values for [^3 H]NBMPR specifically bound in the presence of inhibitor are expressed as percentages of that bound in its absence.
IC50 values were determined from plots of % site-bound NBMPR in presence of test compound against concentration of test compound.

T3 sequence (A0A287B2T6 1-457): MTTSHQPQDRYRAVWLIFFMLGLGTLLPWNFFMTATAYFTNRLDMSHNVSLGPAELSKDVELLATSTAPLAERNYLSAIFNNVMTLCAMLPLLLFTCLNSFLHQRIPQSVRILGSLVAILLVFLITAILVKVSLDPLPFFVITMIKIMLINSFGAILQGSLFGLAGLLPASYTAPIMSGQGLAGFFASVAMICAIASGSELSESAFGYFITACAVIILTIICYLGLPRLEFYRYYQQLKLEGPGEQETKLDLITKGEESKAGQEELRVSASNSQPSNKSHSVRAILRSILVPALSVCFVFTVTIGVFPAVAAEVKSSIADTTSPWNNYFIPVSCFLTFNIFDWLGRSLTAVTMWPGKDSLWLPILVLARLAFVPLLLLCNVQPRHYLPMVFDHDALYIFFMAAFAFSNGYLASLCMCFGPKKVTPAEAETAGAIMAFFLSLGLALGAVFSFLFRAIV

SMILES: O=C(O)c1cc(NC(=S)NCCSC[C@H]2O[C@@H](n3cnc4c(NCc5ccc([N+](=O)[O-])cc5)ncnc43)[C@H](O)[C@@H]2O)ccc1-c1c2ccc(=O)cc-2oc2cc(O)ccc12 [SAENTA-X2-fluorescein]
- distinction of L1210/B23.1 from L1210/MA-27.1 cells by cell staining [1]: able to distinguish clearly
- IC50 (nucleoside transporter [2]; 50 μM araC, 20° C., 10 min pretreatment): ~40 nM
- inhibition of influx of [3H]araC (nucleoside transporter [2]; 50 μM araC, 20° C., 10 min exposure to 0.25 μM probe): 90%
- IC50 (nucleoside transporter [3]): 50 to 100 nM
- EC50 (nucleoside transporter [4]; RC2a cells 1×10^5/ml, room temperature, n=3, ±1 SD, FIG. 7, read-out: concentration giving half-maximal binding (NBMPR-sensitive)): 6.2 ± 1 nM
- time to equilibrium of cell bound fluorescence (nucleoside transporter [4]; all ligand concentrations, room temperature): 10 min
- time to equilibrium between bound and free probe (nucleoside transporter [4]; lowest ligand concentration, room temperature): 10 min

SMILES: O=C1OC2(c3ccc(O)cc3Oc3cc(O)ccc32)c2cc(NC(=S)NCCSC[C@H]3O[C@@H](n4cnc5c(NCc6ccc([N+](=O)[O-])cc6)ncnc54)[C@H](O)[C@@H]3O)ccc21 [6-(SAENTA-X2)-fluorescein]
- Ki [5]: 9.9 ± 2.8 nM

SMILES: COc1cc(C(=O)OCCCN2CCCN(CCCOC(=O)c3cc(OC)c(OC)c(OC)c3)CC2)cc(OC)c1OC [dilazep, reference compound]
- effectiveness in stopping araC influx (nucleoside transporter [2]; dilazep added to cells prior to [3H]araC): effectiveness of dilazep in stopping influx was confirmed
- displacement of SAENTA-X2-fluorescein binding (nucleoside transporter [4]; 2 μM dilazep versus 1 μM NBMPR): as effective as NBMPR

SMILES: O=[N+]([O-])c1ccc(CSc2ncnc3c2ncn3C2OC(CO)C(O)C2O)cc1 (centres unmarked) [NBMPR, nitrobenzyl thioinosine, reference compound]
- Kd ([5]; Scatchard analysis (LIGAND)): 0.085 ± 0.015 nM

SMILES: O=C(CCCCCNC(=O)c1ccc2c(c1)C1(OC2=O)c2ccc(O)cc2Oc2cc(O)ccc21)NCCSC[C@H]1O[C@@H](n2cnc3c(NCc4ccc([N+](=O)[O-])cc4)ncnc32)[C@H](O)[C@@H]1O [6-(SAENTA-X8)-fluorescein, 5'-S-[2-(6-(Fluorescein-6-carboxamido)hexanoylamino)ethyl]-N^6-(4-nitrobenzyl)-5'-thioadenosine]
- Ki [5]: 1.7 ± 0.5 nM

SMILES: O=C(CCCCCNC(=O)c1ccc2c(c1)C(=O)OC21c2ccc(O)cc2Oc2cc(O)ccc21)NCCSC[C@H]1O[C@@H](n2cnc3c(NCc4ccc([N+](=O)[O-])cc4)ncnc32)[C@H](O)[C@@H]1O [5-(SAENTA-X8)-fluorescein, 5'-S-[2-(6-(Fluorescein-5-carboxamido)hexanoylamino)ethyl]-N^6-(4-nitrobenzyl)-5'-thioadenosine]
- Ki [5]: 0.8 ± 0.21 nM

SMILES: NCCSC[C@H]1O[C@@H](n2cnc3c(NCc4ccc([N+](=O)[O-])cc4)ncnc32)[C@H](O)[C@@H]1O [SAENTA, 5'-S-(2-aminoethyl)-6-N-(4-nitrobenzyl)-5'-thioadenosine]
- IC50 [6]: 330 nM
- inhibition of NBMPR binding to the nucleoside transporter [6]: strong inhibition

SMILES: CC(=O)NCCSC[C@H]1O[C@@H](n2cnc3c(NCc4ccc([N+](=O)[O-])cc4)ncnc32)[C@H](O)[C@@H]1O [acetyl SAENTA]
- IC50 [6]: 76 nM
- inhibition of NBMPR binding to the nucleoside transporter [6]: strong inhibition
